Common to all, as to format: in vivo, human
In one assay the test system is MMP-9. The assay can be described thus: Serum MMP-9 by gelatin zymography, 2-year randomized clinical trial of SDD versus placebo. The note with it: postmenopausal osteopenic women with periodontitis, 20 mg doxycycline b.i.d. for 2 years, 92 kDa gelatinase. From the text: (§1) Elevated circulating MMP 9 has been associated with increased risk for fatal cardiac events and PM are considered a population vulnerable, due to decreased estrogen levels, to cardiovascular disease.
(§2) Details concerning subject inclusion and exclusion criteria have been published previously (Payne et al., J. Clin. Periodontol. 34:776-787, 2007). Briefly, subjects were 45-70 years of age at telephone screening, postmenopausal, osteopenic at the lumbar spine or femoral neck, and not receiving hormone replacement therapy (HRT). […] The subjects also had to be in good general health without co-morbidities that could have interfered with adherence to the study protocol, planned follow-up or endpoint measurement.
(§3) 113 PM women who completed the randomized clinical trial (RCT) consented at the final (two-year) study visit for the analysis of stored serum samples. 51 subjects received SDD (20 mg doxycycline) and 62 received placebo tablets b.i.d. for 2 years. Serum samples were collected at the baseline, 1-year and 2-year appointments and frozen at −80° C. until analyzed. MMPs were measured by gelatin zymography using denatured type I collagen as a substrate and purified MMP-2 (72 kDa) and MMP-9 (92 kDa) as standards. Gelatinolytic bands were scanned densitometrically. Statistical analyses were performed using Generalized Estimating Equations. Primary analyses were intent-to-treat (ITT). […]

A short description of assay [1]: Serum lipids (commercial laboratory), 2-year RCT of SDD versus placebo. The following applies: subgroup: women more than 5 years postmenopausal. From the text: (§4) The objective of this study was to determine whether sub-antimicrobial-dose-doxycycline (SDD) can reduce serum inflammatory biomarkers associated with cardiovascular disease (CVD) risk (primary outcome: CRP) in a two-year, randomized controlled clinical trial (RCT) in postmenopausal (PM) women with systemic osteopenia and periodontitis. 113 women who completed the RCT (SDD group: n=51; placebo group: n=62) consented at the final (two-year) study visit for their baseline, one-year and two-year serum samples to be analyzed for serum inflammatory biomarkers. Analyses by ELISA included CRP (high-sensitivity ELISA), IL-6, myeloperoxidase (MPO), IL-1β and TNF-α. Serum lipids (total cholesterol, HDL cholesterol, LDL cholesterol, VLDL cholesterol, and triglycerides) were analyzed by a commercial laboratory. Statistical analyses were performed using Generalized Estimating Equations; primary analyses were intent-to-treat (ITT). Pre-specified subgroup analyses also were performed. All results are presented as ratios of median values (SDD versus placebo) unless otherwise indicated.

Another assay relates to CRP. Put plainly: Serum CRP by high-sensitivity ELISA, 2-year RCT of SDD versus placebo. The note with it: intent-to-treat.
Source text: The objective of this study was to determine whether sub-antimicrobial-dose-doxycycline (SDD) can reduce serum inflammatory biomarkers associated with cardiovascular disease (CVD) risk (primary outcome: CRP) in a two-year, randomized controlled clinical trial (RCT) in postmenopausal (PM) women with systemic osteopenia and periodontitis.
as §4, with “113” for “The objective of this study was to determine whether sub-antimicrobial-dose-doxycycline (SDD) can reduce serum inflammatory biomarkers associated with cardiovascular disease (CVD) risk (primary outcome: CRP) in a two-year, randomized controlled clinical trial (RCT) in postmenopausal (PM) women with systemic osteopenia and periodontitis. 113”
A general note: ELISA stands for enzyme-linked immunosorbent assay.

A further assay has as its system MMP-2. Put plainly: Serum MMP-2 by gelatin zymography, 2-year randomized clinical trial of SDD versus placebo. The following applies: per-protocol analysis, p=0.03, SDD minus placebo.
Source text: as §1, §2, §3

A further assay deals with MMP-8/TIMP-1. Put plainly: Median MMP-8/TIMP-1 ratio, further analysis of the 2-year RCT. The note with it: women within five years of menopause, at two years.

Structures are written as SMILES.

On to `C[C@H]1c2cccc(O)c2C(=O)C2=C(O)[C@]3(O)C(=O)C(C(N)=O)=C(O)[C@@H](N(C)C)[C@@H]3[C@@H](O)[C@@H]21` [SDD, 6α-deoxy-5-hydroxytetracycline], for which the “reduction of serum MMP-9 levels (difference in means, SDD minus placebo)” value in the assay on MMP-9 (intent-to-treat analysis) turned out to be 28.4 scanning units; in the assay with MMP-9 (per-protocol analysis), 29.4 scanning units. The “VLDL cholesterol, ratio of median values (SDD versus placebo)” value in assay [1] (95% CI 0.76 to 1.00, p=0.06) was determined as 0.87. Moreover, in assay [1] (95% CI 0.76 to 1.01, p=0.06), the “triglycerides, ratio of median values (SDD versus placebo)” value amounted to 0.87. Besides, the “increase in HDL cholesterol over time (difference in means)” value in assay [1] (95% CI 1.17 to 10.81, p=0.01) amounted to 5.99 mg/dL. The “reduction of median CRP levels compared to placebo” value in the assay on CRP (2-year RCT, serum) is reported as 18%. Besides, the “CRP, ratio of median values (SDD versus placebo)” value in the assay with CRP (95% CI 0.70 to 0.97, p=0.02) is given as 0.82. Moreover, the “reduction of serum MMP-2, 2-year values (average)” value with MMP-2 came out at 16.5 units. In the assay on MMP-8/TIMP-1, the “reduction of median MMP-8/TIMP-1 ratio” value worked out at 49%. In addition, the “MMP-8/TIMP-1, ratio of medians (SDD relative to placebo)” value with MMP-8/TIMP-1 (95% CI 0.31 to 0.82, p=0.006) was found to be 0.51.
